Measurements: patent publication US9758485B2, “Compounds for controlling arthropods” (priority 2013, dated 2017)

Tests used:
[1] = system: Lucilia cuprina; assay: Lucilia cuprina test; type: in vivo; conditions: application rate 100 ppm; L1 larvae in minced horsemeat; kill after 2 days
Procedure, shortened: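 About 20 L1 larvae placed on minced horsemeat treated with compound, formulated in DMSO and diluted with water to test concentration. Kill in % scored after 2 days (100% = all larvae dead, 0% = none).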

[2] = system: Rhipicephalus sanguineus; assay: Rhipicephalus sanguineus - in vitro contact tests with adult brown dog ticks; type: in vivo
Protocol: Rhipicephalus sanguineus—In Vitro Contact Tests with Adult Brown Dog Ticks
For the coating of the test tubes, 9 mg of active ingredient are first dissolved in 1 ml of acetone p.a. and then diluted to the desired concentration with acetone p.a. 250 μl of the solution are distributed homogeneously on the inner walls and base of a 25 ml test tube by turning and rocking on an orbital shaker (rocking rotation at 30 rpm for 2 h). With 900 ppm active ingredient solution and internal surface 44.7 cm^2, given homogeneous distribution, an area-based dose of 5 μg/cm^2 is achieved.
After the solvent has evaporated off, the tubes are populated with 5-10 adult dog ticks (Rhipicephalus sanguineus), sealed with a perforated plastic lid and incubated in a horizontal position in the dark at room temperature and ambient humidity. After 48 h, efficacy is determined. To this end, the ticks are knocked to the floor of the tube and incubated on a hotplate at 45-50° C. for not more than 5 min. Ticks which remain motionless on the floor or move in such an uncoordinated manner that they are unable to deliberately avoid the heat by climbing upwards are considered to be dead or moribund.
An efficacy of 100% means that all the ticks were dead or moribund. 0% efficacy means that none of the ticks had been harmed.

[3] = logP determination by HPLC on a reversed-phase column (C18), EEC Directive 79/831 Annex V.A8; type: physicochemical; conditions: for logP^a): HPLC-MS method a), Table I-T3; for log P: HPLC-MS, reversed-phase column (C18); for logP: HPLC, reversed-phase C18, acetonitrile/water with formic acid, 55° C.
[4] = system: Boophilus microplus; assay: Boophilus microplus - injection test; type: in vivo; conditions: application rate 20 μg/animal; injected into engorged adult female ticks; laying of fertile eggs, after 7 days
Procedure, shortened: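 Read-out is % efficacy from fertile egg laying at 7 days: 100% means no tick laid fertile eggs, 0% means all eggs fertile. Each of 5 engorged adult females received 1 μl of DMSO test solution injected abdominally.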

[5] = system: Ctenocephalides felis; assay: Ctenocephalides felis - in vitro contact tests with adult cat fleas; type: in vivo; conditions: application rate 5 μg/cm^2 (=500 g/ha), after 48 h (dead or moribund)
Procedure, shortened: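 Acetone solution coated on test-tube inner walls (900 ppm gives 5 μg/cm^2). After drying, 5-10 adult cat fleas added and kept horizontal at room temperature and ambient humidity. At 48 h fleas knocked down; motionless or uncoordinated ones counted dead/moribund, giving % efficacy.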

[6] = system: Boophilus microplus Parkhurst strain, SP-resistant; assay: Boophilus microplus - dip test; type: in vivo; conditions: application rate 100 ppm; dip of engorged adult female ticks; laying of fertile eggs, after 7 days
Protocol: Boophilus microplus—Dip Test
Test animals: cattle ticks (Boophilus microplus) Parkhurst strain, SP-resistant
(§1) Solvent: dimethyl sulphoxide
10 mg of active ingredient are dissolved in 0.5 ml of dimethyl sulphoxide. For the purpose of producing a suitable formulation, the active ingredient solution is diluted with water to the concentration desired in each case.
This active ingredient formulation is pipetted into tubes. 8-10 adult engorged female cattle ticks (Boophilus microplus) are transferred into a further tube with holes. The tube is immersed into the active ingredient formulation, and all the ticks are completely wetted. After the liquid has run out, the ticks are transferred on filter discs into plastic dishes and stored in a climate-controlled room.
Efficacy is assessed after 7 days by laying of fertile eggs. Eggs which are not visibly fertile are stored in a climate-controlled cabinet until the larvae hatch after about 42 days. An efficacy of 100% means that none of the ticks has laid any fertile eggs; 0% means that all the eggs are fertile.

[7] = system: Ctenocephalides felis; assay: Ctenocephalides felis - oral test; type: in vivo; conditions: application rate 100 ppm in citrated cattle blood; adult fleas; kill after 2 days
Procedure, shortened: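 About 20 unfed adult cat fleas fed through a parafilm membrane on citrated cattle blood containing compound, dosed from a DMSO stock. Kill in % scored after 2 days; 100% means all fleas dead.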

[8] = system: Amblyomma hebraeum; assay: Amblyomma hebraeum test (tick nymphs, immersion); type: in vivo; conditions: application rate 100 ppm; tick nymphs immersed for one minute; kill after 42 days
Protocol: as §1
To produce an appropriate active ingredient formulation, 10 mg of active ingredient are mixed with 0.5 ml of dimethyl sulphoxide, and the concentrate is diluted with water to the desired concentration.
Tick nymphs (Amblyomma hebraeum) are placed into perforated plastic beakers and immersed in the desired concentration for one minute. The ticks are transferred on filter paper into a Petri dish and stored in a climate-controlled cabinet.
After 42 days, the kill in % is determined. 100% means that all of the ticks have been killed; 0% means that none of the ticks have been killed.

[9] = system: Musca domestica; assay: Musca domestica test; type: in vivo; conditions: application rate 100 ppm; adult houseflies; kill after 2 days
Procedure, shortened: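 Compound in DMSO, diluted with water, applied to a sugar-solution sponge; vessels hold 10 adult houseflies. Percent mortality scored after 2 days.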

[10] = application rate 5 μg/cm^2, after 48 h (dead or moribund)

Structure (SMILES)	efficacy [1]	efficacy [2, 10]	logP^a) [3]	efficacy [4]	efficacy [5]	efficacy [6]	efficacy [7]	efficacy [8]	efficacy [9]	log P [3]	efficacy ([2]; application rate 0.2 μg/cm^2, after 48 h (dead or moribund))	logP [3]
CCc1cc(C(F)(C(F)(F)F)C(F)(F)F)cc(C)c1-n1cc(-c2ccc(Cl)c(C(=O)NC3CC3)c2)cn1 [I-T3-44]	100%	100%	4.7	100%	100%	100%	100%	100%				
N#CC1(NC(=O)c2cc(-c3cnn(-c4ccc(C(F)(C(F)(F)F)C(F)(F)F)cc4C(F)(F)F)c3)ccc2Cl)CC1 [I-T3-53]	100%	100%	4.3	100%		100%	100%	80%	100%			
N#CC1(NC(=O)c2cc(-c3cnn(-c4c(Cl)cc(C(F)(C(F)(F)F)C(F)(F)F)cc4C(F)(F)F)c3)ccc2Cl)CC1 [I-T3-57]	100%		4.3	100%	100%	100%	100%	100%	100%			
Cc1cc(C(F)(C(F)(F)F)C(F)(F)F)cc(Br)c1-n1cc(-c2ccc(Cl)c(C(=O)NC3CC3)c2)cn1 [I-T3-86]	100%		4.5	100%	100%	100%	100%	100%	100%			
N#CC1(NC(=O)c2cc(-c3cnn(-c4c(Cl)cc(C(F)(F)F)cc4Cl)c3)cnc2Cl)CC1 [I-T3-95]				100%	100%	100%	100%	100%		3.1		
CN(C(=O)c1cc(-c2cnn(-c3c(Cl)cc(C(F)(C(F)(F)F)C(F)(F)F)cc3Cl)c2)cnc1Cl)C1CC1 [I-T3-100]	100%			100%	100%	100%	100%	100%	100%	4.4		
Cc1cc(C(F)(C(F)(F)F)C(F)(F)F)cc(C)c1-n1cc(-c2cnc(Cl)c(C(=O)N(C)C3CC3)c2)cn1 [I-T3-101]	100%			100%	100%	100%	100%	95%	100%	4.4		
CN(C(=O)c1cc(-c2cnn(-c3c(Cl)cc(C(F)(C(F)(F)F)C(F)(F)F)cc3Cl)c2)cnc1Cl)C1(C#N)CC1 [I-T3-102]	100%			100%	100%	100%	100%	90%	100%	4.3		
Cc1cc(C(F)(C(F)(F)F)C(F)(F)F)cc(C)c1-n1cc(-c2cnc(Cl)c(C(=O)N(C)C3(C#N)CC3)c2)cn1 [I-T3-103]	100%			100%	100%	100%	100%	90%	100%	4.3		
CCc1cc(C(F)(C(F)(F)F)C(F)(F)F)ccc1-n1cc(-c2cnc(Cl)c(C(=O)NC3CC3)c2)cn1 [I-T3-104]	100%	100%		100%		100%	100%	100%	100%	4.2		
CCc1cc(C(F)(C(F)(F)F)C(F)(F)F)ccc1-n1cc(-c2cnc(Cl)c(C(=O)NC3(C#N)CC3)c2)cn1 [I-T3-105]	100%			100%			100%	85%	80%	4.1	100%	
Cc1cc(C(F)(C(F)(F)F)C(F)(F)F)cc(C(F)(F)F)c1-n1cc(-c2cnc(Cl)c(C(=O)N(C)C3CC3)c2)cn1 [I-T3-107]	100%			100%	100%	100%	100%	100%	100%	4.5		
Cc1cc(C(F)(C(F)(F)F)C(F)(F)F)cc(C(F)(F)F)c1-n1cc(-c2cnc(Cl)c(C(=O)N(C)C3(C#N)CC3)c2)cn1 [I-T3-111]	100%			100%	100%	98%	100%	80%	100%	4.4		
CN(C(=O)c1cc(-c2cnn(-c3c(Cl)cc(C(F)(C(F)(F)F)C(F)(F)F)cc3C(F)(F)F)c2)cnc1Cl)C1(C#N)CC1 [I-T3-116]	100%			100%	100%	100%	100%	100%	100%	4.3		
Cc1ncc(-c2cnn(-c3c(Cl)cc(C(F)(C(F)(F)F)C(F)(F)F)cc3C(F)(F)F)c2)cc1C(=O)NC1CC1 [I-T3-124]	100%			100%	100%	100%	100%	100%	100%	3.5		
Cc1ncc(-c2cnn(-c3c(Cl)cc(C(F)(C(F)(F)F)C(F)(F)F)cc3C(F)(F)F)c2)cc1C(=O)N(C)C1(C#N)CC1 [I-T3-131]	100%			100%	100%	100%	100%	100%	100%	3.9		
Cc1cc(C(F)(C(F)(F)F)C(F)(F)F)cc(I)c1-n1cc(-c2ccc(Cl)c(C(=O)NC3(C#N)CC3)c2)cn1 [I-T3-176]	100%	100%		100%	100%	100%	100%		100%	4.4		
Cc1cc(C(F)(C(F)(F)F)C(F)(F)F)cc(C)c1-c1cnn(-c2cnc(Cl)c(C(=O)NC3(C#N)CC3)c2)c1 [I-T4-4]	100%	100%		100%	100%	100%	100%	100%				4.3
Cc1cc(C(F)(C(F)(F)F)C(F)(F)F)cc(C(F)(F)F)c1-c1cc(-c2ccc(Cl)c(C(=O)NC3CC3)c2)on1 [I-T22-5]	100%	100%		100%	100%	100%	100%		100%			4.9
